These results are taken from patent publication US12024707B2, “Methods and compositions for modulating lncRNAs and methods of treatment based on lncRNA expression” (Washington University, priority 2020, dated 2024).

This assay deals with HT29 RAMS11 overexpressing cells. The assay is described as follows: High-throughput viability assay (resazurin), 119 FDA-approved anticancer drugs, RAMS11 overexpressing cells (Clone1, Clone2). For orientation: Alamar Blue is a resazurin reagent that responds to reducing activity.
The mark [1] stands for this setting: OE1 (RAMS11 overexpression clone 1), 0.1 uM drug, 72 h, vs empty vector control.
[2] abbreviates: OE1 (RAMS11 overexpression clone 1), 1 uM drug, 72 h, vs empty vector control.
Setting [3] is: OE1 (RAMS11 overexpression clone 1), 10 uM drug, 72 h, vs empty vector control.
[4] abbreviates: OE2 (RAMS11 overexpression clone 2), 0.1 uM drug, 72 h, vs empty vector control.
The mark [5] stands for this setting: OE2 (RAMS11 overexpression clone 2), 1 uM drug, 72 h, vs empty vector control.
Where [6] appears, read: OE2 (RAMS11 overexpression clone 2), 10 uM drug, 72 h, vs empty vector control.

SMILES strings stand for the structures. Several values for one entry are separate records, joined by “and”; a condition that tells them apart may be missing. Equal values may be shown once. Where a name gives a salt, the structure may show the parent alone. Read-outs that look alike come from different tables or passages of the source.

Consider `OC[C@H]1O[C@@H](n2cnc3c2NC=NC[C@H]3O)C[C@@H]1O` [Pentostatin], for which the “Viability Fold Change” value reads like this: under setting [1], 0.9312; under setting [2], 0.9502; under setting [3], 0.8658; under setting [4], 0.9287; under setting [5], 0.9777; under setting [6], 1.078.
For `O=C(CCBr)N1CCN(C(=O)CCBr)CC1` [Pipobroman], the “Viability Fold Change” value is listed as 0.9413 under setting [1]; 0.9838 under setting [2]; 0.9918 under setting [3]; 0.9432 under setting [4]; 0.9438 under setting [5]; 0.8949 under setting [6].
For `c1cc(CN2CCCNCCNCCCNCC2)ccc1CN1CCCNCCNCCCNCC1` [Plerixafor], the “Viability Fold Change” value is, setting by setting: under setting [1], 0.9866; under setting [2], 1.152; under setting [3], 1.057; under setting [4], 1.085; under setting [5], 1.208; under setting [6], 1.062.
Regarding `Nc1cccc2c1C(=O)N(C1CCC(=O)NC1=O)C2=O` (stereo not shown) [Pomalidomide], the “Viability Fold Change” value by setting is: under setting [1], 0.9335; under setting [2], 0.9509; under setting [3], 0.9014; under setting [4], 0.9444; under setting [5], 0.9433; under setting [6], 0.933.
`Cc1ccc(C(=O)Nc2ccc(CN3CCN(C)CC3)c(C(F)(F)F)c2)cc1C#Cc1cnc2cccnn12` [Ponatinib]: the “Viability Fold Change” value was 1.056 and 0.9383 and 0.9645 and 1.199 and 0.9342 and 1.001.
On to `C#CCC(Cc1cnc2nc(N)nc(N)c2n1)c1ccc(C(=O)N[C@@H](CCC(=O)O)C(=O)O)cc1` (stereo partly shown) [Pralatrexate], for which the “Viability Fold Change” value runs as follows: under setting [1], 0.7405; under setting [2], 0.9216; under setting [3], 1.034; under setting [4], 0.8579; under setting [5], 0.9781; under setting [6], 1.119.
For the compound `CNNCc1ccc(C(=O)NC(C)C)cc1` [Procarbazine], the “Viability Fold Change” value by setting is: under setting [1], 1.003; under setting [2], 1.042; under setting [3], 0.9825; under setting [4], 0.9328; under setting [5], 1.046; under setting [6], 0.9303.
`O=C(c1ccc(OCCN2CCCCC2)cc1)c1c(-c2ccc(O)cc2)sc2cc(O)ccc12` [Raloxifene]: the “Viability Fold Change” value was determined as 0.9457 under setting [1]; 0.9244 under setting [2]; 0.9067 under setting [3]; 0.9401 under setting [4]; 0.9282 under setting [5]; 0.9671 under setting [6].
In the case of `CO[C@H]1C[C@@H]2CC[C@@H](C)[C@@](O)(O2)C(=O)C(=O)N2CCCC[C@H]2C(=O)O[C@H]([C@H](C)C[C@@H]2CC[C@@H](O)[C@H](OC)C2)CC(=O)[C@H](C)/C=C(\C)[C@@H](O)[C@@H](OC)C(=O)[C@H](C)C[C@H](C)/C=C/C=C/C=C/1C` [Rapamycin], the “Viability Fold Change” value under setting [1] is listed as 0.7003; the “Viability Fold Change” value under setting [2] came to 0.7403; the “Viability Fold Change” value under setting [3] came out at 0.7222; the “Viability Fold Change” value under setting [4] amounted to 0.6232; the “Viability Fold Change” value under setting [5] came to 0.772; the “Viability Fold Change” value under setting [6] was 0.7575.
As to `CNC(=O)c1cc(Oc2ccc(NC(=O)Nc3ccc(Cl)c(C(F)(F)F)c3)c(F)c2)ccn1` [Regorafenib], the “Viability Fold Change” value is, setting by setting: under setting [1], 0.938; under setting [2], 0.9476; under setting [3], 1.158; under setting [4], 0.9919; under setting [5], 1.09; under setting [6], 1.143.
For `C/C=C1\NC(=O)[C@H]2CSSCC/C=C/[C@H](CC(=O)N[C@H](C(C)C)C(=O)N2)OC(=O)[C@H](C(C)C)NC1=O` [Romidepsin], the “Viability Fold Change” value runs as follows: under setting [1], 6.243; under setting [2], 5.327; under setting [3], 4.427; under setting [4], 6.211; under setting [5], 5.577; under setting [6], 4.697.
Regarding `CNC(=O)c1cc(Oc2ccc(NC(=O)Nc3ccc(Cl)c(C(F)(F)F)c3)cc2)ccn1` [Sorafenib], the “Viability Fold Change” value by setting is: under setting [1], 0.8542; under setting [2], 0.8177; under setting [3], 1.022; under setting [4], 0.8959; under setting [5], 0.8971; under setting [6], 1.017.
Take `CN(N=O)C(=O)N[C@@H](C=O)[C@@H](O)[C@H](O)[C@H](O)CO` [Streptozocin]: the “Viability Fold Change” value is on record as 1.06 under setting [1]; 1.011 under setting [2]; 0.905 under setting [3]; 0.9729 under setting [4]; 1.036 under setting [5]; 0.9955 under setting [6].
For `CCN(CC)CCNC(=O)c1c(C)[nH]c(/C=C2\C(=O)Nc3ccc(F)cc32)c1C` [Sunitinib], the “Viability Fold Change” value by setting is: under setting [1], 0.8337; under setting [2], 0.8856; under setting [3], 0.2329; under setting [4], 0.914; under setting [5], 0.9165; under setting [6], 0.5714.
Take `CC/C(=C(\c1ccccc1)c1ccc(OCCN(C)C)cc1)c1ccccc1` [Tamoxifen Citrate]: the “Viability Fold Change” value is, setting by setting: under setting [1], 1.127; under setting [2], 1.144; under setting [3], 1.077; under setting [4], 1.097; under setting [5], 1.08; under setting [6], 1.059.
For the compound `Cn1nnc2c(C(N)=O)ncn2c1=O` [Temozolomide], the “Viability Fold Change” value came out at 0.9344 under setting [1]; 0.9467 under setting [2]; 0.8777 under setting [3]; 0.8975 under setting [4]; 1.032 under setting [5]; 0.9198 under setting [6].
Consider `CO[C@H]1C[C@@H]2CC[C@@H](C)[C@@](O)(O2)C(=O)C(=O)N2CCCC[C@H]2C(=O)O[C@H]([C@H](C)C[C@@H]2CC[C@@H](OC(=O)C(C)(CO)CO)[C@H](OC)C2)CC(=O)[C@H](C)/C=C(\C)[C@@H](O)[C@@H](OC)C(=O)[C@H](C)C[C@H](C)/C=C/C=C/C=C/1C` [Temsirolimus], for which the “Viability Fold Change” value came out at 0.7059 under setting [1]; 0.6733 under setting [2]; 0.6861 under setting [3]; 0.6816 under setting [4]; 0.7302 under setting [5]; 0.693 under setting [6].
For the compound `COc1cc([C@@H]2c3cc4c(cc3[C@@H](O[C@@H]3O[C@@H]5CO[C@@H](c6cccs6)O[C@H]5[C@H](O)[C@H]3O)[C@H]3COC(=O)[C@H]23)OCO4)cc(OC)c1O` [Teniopside], the “Viability Fold Change” value by setting is: under setting [1], 1.038; under setting [2], 1.327; under setting [3], 2.288; under setting [4], 0.9657; under setting [5], 1.349; under setting [6], 2.261.
On to `O=C1CCC(N2C(=O)c3ccccc3C2=O)C(=O)N1` (stereo not shown) [Thalidomide], for which the “Viability Fold Change” value is, setting by setting: under setting [1], 0.9251; under setting [2], 0.9878; under setting [3], 0.9064; under setting [4], 0.8995; under setting [5], 1; under setting [6], 1.074.
As to `Nc1nc2nc[nH]c2c(=S)[nH]1` [Thioguanine], the “Viability Fold Change” value was found to be 0.9423 under setting [1]; 0.9288 under setting [2]; 0.9702 under setting [3]; 0.8995 under setting [4]; 0.8724 under setting [5]; 1.01 under setting [6].
Regarding `S=P(N1CC1)(N1CC1)N1CC1` [Thiotepa], the “Viability Fold Change” value was 0.7908 and 0.9826 and 0.9401 and 0.9694 and 0.9433 and 0.8817.
Consider `CC[C@@]1(O)C(=O)OCc2c1cc1n(c2=O)Cc2cc3c(CN(C)C)c(O)ccc3nc2-1` [Topotecan HCL], for which the “Viability Fold Change” value under setting [1] is recorded as 1.11; the “Viability Fold Change” value under setting [2] was found to be 2.225; the “Viability Fold Change” value under setting [3] is given as 3.389; the “Viability Fold Change” value under setting [4] stood at 1.018; the “Viability Fold Change” value under setting [5] amounted to 2.127; the “Viability Fold Change” value under setting [6] came out at 2.763.
Turning to `CC(=O)Nc1cccc(-n2c(=O)n(C3CC3)c(=O)c3c(Nc4ccc(I)cc4F)n(C)c(=O)c(C)c32)c1` [Trametinib], the “Viability Fold Change” value is, setting by setting: under setting [1], 1.35; under setting [2], 1.732; under setting [3], 1.975; under setting [4], 1.213; under setting [5], 1.641; under setting [6], 1.886.
Consider `CC1=C(/C=C/C(C)=C/C=C/C(C)=C/C(=O)O)C(C)(C)CCC1` [Tretinoin], for which the “Viability Fold Change” value by setting is: under setting [1], 1.161; under setting [2], 1.226; under setting [3], 1.142; under setting [4], 1.068; under setting [5], 1.373; under setting [6], 1.336.
As for `C1CN1c1nc(N2CC2)nc(N2CC2)n1` [Triethylenemelamine], the “Viability Fold Change” value is 1.287 and 1.238 and 0.9974 and 1.295 and 1.284 and 1.013.
With `Oc1ncc(N(CCCl)CCCl)c(O)n1` [Uracil mustard], the “Viability Fold Change” value is 0.8306 and 1.02 and 0.9705 and 0.9647 and 1.048 and 0.932.
